# Assay results taken from patent US20060142390A1, “Treatment for severe melancholic depression” (priority 2004, published 2006).
# What was measured:
# [1] = system: outpatients with a new episode of depression; experiment: Study of 96% pure EPA (ethyl ester) as monotherapy versus placebo in depression; Bech Scale and depression sub score of the HDRS; format: in vivo, human; set-up: key to Bech score, Mean: Bech score = sum of 6 HDRS items; key to Change of Bech score: reduction of Bech score (sum of 6 HDRS items) over trial; key to Depression subscore (item1, item2, item3), Mean / Depression subscore, Mean: sum of HDRS item 1, item 2 and item 3; conditions: for Bech score, Mean / Depression subscore (item1, item2, item3), Mean / Depression subscore, Mean: EPA any dose; for Depression subscore (item1, item2, item3), Mean: ITT
# Experimental: (§1) A study was performed on outpatients with a new episode of depression using 96% pure EPA, as the ethyl ester, as a monotherapy for treatment of depression. The primary objective was to examine the effects of 96% pure EPA versus placebo on the Hamilton Depression Rating Scale (HDRS) in patients with a new or recurrent episode of depression. • 1. The Bech Scale (sum of 6 items as specified) was used as the instrument to measure efficacy across all subjects, i.e. the reduction of the Bech Score in the course of the trial, by comparing this change in the active groups with that in the placebo group. The Bech Scale consists of 6 items from the original HDRS: depression, guilt, work/interest, psychomotor retardation, anxiety psychic and general somatic symptoms (loss of energy, tiredness) and has been successfully used in several trials (Bech 2002 Acta Psychiatry Scand vol 106; p 252-264). • 2. For the differentiation of the subgroups of subjects, item 6 (early morning awakening), item 12 (loss of appetite) and item 16 (weight loss) were chosen from the HDRS, to identify subjects suffering from severe melancholic features. These items are also related to the definition of the melancholia specifier according the DSM-IV (American Psychiatric Association: 4th Edition, 2000). This specification was only done once, i.e. at the baseline visit (v1). Patients with a score of 2 in any of these 3 items were regarded as having severe melancholic items and therefore belonging the severe melancholic group, the others were regarded as not belonging to this group. The characteristics could change in the course of treatment, therefore it was important that only the condition at baseline was used for the definition. Results: An analysis of a less frequently used, but pre-specified sub score, i.e. the depression sub score, which is the sum of item 1 (depression), item 2 (guilt) and item 3 (suicidality), confirmed the findings.
# [2] = system: non-responsive patients on standard therapy; experiment: Earlier trials of 96% pure EPA as add on to standard therapy in non-responsive patients; Bech score over time; format: in vivo, human; set-up: key to Bech score, Mean: Bech score = sum of 6 HDRS items; conditions: for Bech score, Mean: Add on therapy
# Excerpt: as §1, with “The” for “A study was performed on outpatients with a new episode of depression using 96% pure EPA, as the ethyl ester, as a monotherapy for treatment of depression. The”, “Results:” for “Results: An analysis of a less frequently used, but pre-specified sub score, i.e. the depression sub score, which is the sum of item 1 (depression), item 2 (guilt) and item 3 (suicidality), confirmed the findings.”
# The following presents the Bech-Score over time in the severe melancholic groups, contrasted with those subjects showing no severe melancholic signs.
structure (smiles),measurement,setting,value
"CC/C=C\C/C=C\C/C=C\C/C=C\C/C=C\CCCC(=O)O [EPA, all cis (or all z) 5,8,11,14,17-eicosapentaenoic acid]",Change of Bech score compared with placebo,[1]; ITT group,no significant difference
same,Change of Bech score,"[1]; ITT group, all subjects, placebo changed by 3.9 points",4.0 points
same,"Bech score, Mean","[1]; ITT group, Bech l2, after 2 weeks, last observation carried forward",8.1
same,"Bech score, Mean","[1]; ITT group, Bech l4, after 4 weeks, last observation carried forward",6.6
same,"Bech score, Mean","[1]; ITT group, Bech l6, after 6 weeks, last observation carried forward",6.3
same,"Bech score, Mean","[1]; ITT group, Bech v1 = baseline week 1",10.3
same,"Depression subscore (item1, item2, item3), Mean",[1]; baseline,4.3
same,"Depression subscore (item1, item2, item3), Mean","[1]; outcome, LOCF",2.3
same,"Bech score, Mean","[1]; No severe melancholic signs, Bech l2 (week 2)",8.8
same,"Bech score, Mean","[1]; No severe melancholic signs, Bech l4 (week 4)",6.3
same,"Bech score, Mean","[1]; No severe melancholic signs, Bech l6 (week 6)",6.1
same,"Bech score, Mean","[1]; No severe melancholic signs, Bech v1 (baseline)",10.2
same,"Depression subscore, Mean","[1]; No severe melancholic signs, baseline",4.4
same,"Depression subscore, Mean","[1]; No severe melancholic signs, outcome",2.4
same,"Bech score, Mean","[1]; With severe melancholic signs, Bech l2 (week 2)",7.3
same,"Bech score, Mean","[1]; With severe melancholic signs, Bech l4 (week 4)",7.0
same,"Bech score, Mean","[1]; With severe melancholic signs, Bech l6 (week 6)",6.5
same,"Bech score, Mean","[1]; With severe melancholic signs, Bech v1 (baseline)",10.3
same,"Depression subscore, Mean","[1]; With severe melancholic signs, baseline",4.1
same,"Depression subscore, Mean","[1]; With severe melancholic signs, outcome",2.3
same,Change of Bech score compared with placebo,[1]; non-severe melancholic group,not significantly different
same,Change of Bech score,"[1]; non-severe melancholic group, placebo change 5.0",4.1
same,"Depression sub score outcome compared with placebo (ANVOVA, baseline as covariate)",[1]; patients with severe melancholic signs,significant superiority
same,Improvement of depression sub score,"[1]; patients with severe melancholic signs, placebo 0.7 points, p<0.05",1.8 points
same,Improvement of Bech score,"[1]; patients with severe melancholic signs, placebo 2.9 points, p<0.05",3.8 points
same,"Bech score, Mean","[2]; no severe melancholic signs, Bech l2 (week 2)",8.3
same,"Bech score, Mean","[2]; no severe melancholic signs, Bech l4 (week 4)",7.3
same,"Bech score, Mean","[2]; no severe melancholic signs, Bech l8 (week 8)",6.7
same,"Bech score, Mean","[2]; no severe melancholic signs, Bech l12 (week 12)",6.7
same,"Bech score, Mean","[2]; no severe melancholic signs, Bech v1 (baseline)",9.8
same,"Bech score, Mean","[2]; with severe melancholic signs, Bech l2 (week 2)",8.1
same,"Bech score, Mean","[2]; with severe melancholic signs, Bech l4 (week 4)",6.8
same,"Bech score, Mean","[2]; with severe melancholic signs, Bech l8 (week 8)",5.9
same,"Bech score, Mean","[2]; with severe melancholic signs, Bech l12 (week 12)",5.3
same,"Bech score, Mean","[2]; with severe melancholic signs, Bech v1 (baseline)",9.0
same,Improvement of Bech score,"[2]; add on therapy, patients with severe melancholic features, 12 weeks, placebo 2.8 points, p<0.05",3.7 points
same,"Bech score outcome at 12 weeks compared with placebo (ANVOVA, baseline as covariate, last observation carried forward)","[2]; add on therapy, patients with severe melancholic signs",statistically superior
